Measurements from patent publication US20200170291A1, “PROCESSES FOR PRODUCING LACTITOL GRANULATES AND GRANULATES PRODUCED THEREBY” (PARTICLE DYNAMICS INTERNATIONAL, LLC, priority 2017, published 2020).
Read-outs that look alike come from different tables or passages of the source.

Assays:
Format in all cases: physicochemical
[1] = MALVERN MASTERSIZER 2000 particle size (d10, d50, d90); conditions: for d50: after U5 COMIL, 0.032″ round hole screen
Experimental: (§1) All particle size (PS) analyses were conducted using a ROTAP Particle Size Analyzer and a MALVERN MASTERSIZER 2000, except as otherwise indicated. All particle size data were measured in microns and analyzed via the MALVERN MASTERSIZER 2000.

Tapped density = test: Tapped density
Experimental: (§2) Tapped density of the granulates of the present invention is typically at least about 0.6 g/mL, at least about 0.75 g/mL, at least about 0.80 g/mL, at least about 0.85 g/mL, or at least about 0.90 g/mL. Overall, the tapped density of the granulates of the present invention generally ranges from about 0.6 g/mL to about 1.0 g/mL, from about 0.7 g/mL to about 0.95 g/mL, or from about 0.8 g/mL to about 0.9 g/mL (e.g., about 0.85 g/mL). Bulk and tapped density as reported herein are determined by USP <616>, but it should be understood that other methods known in the art may be also be utilized to determine the tapped densities of compositions of the present invention.
(§3) Tare a 250 mL graduated glass cylinder. Fill with 100 grams of sample. Reweigh to determine weight. Record Initial Volume. The bulk density is the weight in grams divided by the volume (mL). Tap 1000 times by the automated tapping device. Read final volume. The tapped density is the weight in grams divided by the tapped volume (mL).

Bulk density = test: Bulk density
Experimental: as §2, §3

[2] = ROTAP sieve particle size distribution (% retained); conditions: for Particle Size Distribution (% Retained) 12: 12 mesh screen; for Particle Size Distribution (% Retained) 20: 20 mesh screen; for Particle Size Distribution (% Retained) 40: 40 mesh screen; for Particle Size Distribution (% Retained) 60: 60 mesh screen; for Particle Size Distribution (% Retained) 80: 80 mesh screen; for Particle Size Distribution (% Retained) 100: 100 mesh screen; for Particle Size Distribution (% Retained) 200: 200 mesh screen; for Particle Size Distribution (% Retained) Pan: receiving pan
Experimental: as §1
Particle Size: During the granulation process, an approximately 300 g sample is taken from material of the finished product drum starting with the first drum and every sixth drum thereafter, including the last drum (i.e. drum #1, 7, 13, 19 etc.). […] Each fraction was weighed and percent retained was calculated.

[3] = Moisture, loss on drying (LOD), halogen moisture balance; conditions: final / as dried material
From the text: Unless otherwise indicated, the following equipment was used in Examples 1a and 1b: R&D TURBULIZER High Shear Granulator, Model TCB; Large ACCURATE Powder Feeder; AEROMATIC Fluid Bed Dryer, Model S-2; ADMIX High Shear Mixer; SWECO Vibratory Sieve, 18″; STURTEVANT MICRONIZER Jet Mill, Model 45DM; Halogen Moisture Balance (to determine moisture levels); MALVERN MASTERSIZER 2000 (particle size analyzer); ROTAP particle size analyzer; and a Tapped Density Tester.
A sample of lactitol monohydrate (DANISCO) was evaluated for particle size moisture (loss on drying (LOD)), bulk density, and tapped density. […] A photo micrograph of the material was also generated (FIG. 2).
At approximately 125 g/min, the expected moisture level would be approximately 3.4%. However, at this initial binder flow rate, the granulation exiting the mixer felt too dry and was not as granular as desired. […] The final setting was 37 Hz or approximately 140 g/min. At this binder flow rate the expected granulation moisture level would be approximately 3.8%. No additional adjustments were made to the operating conditions over the remainder of the run. The final wet granulation moisture was approximately 2%. In order to improve the accuracy of the LOD moisture results the moisture balance test conditions were altered.
The expected moisture level at this setting would be approximately 4%. […]

[4] = HANSON FLODEX powder flowability (viscosity)
From the text: Samples were also subjected to flowability testing using a HANSON FLODEX Powder Flowability tester. The basis for the method is the powders ability to fall freely through a hole in a plate. The diameter of the smallest hole through which the powder passes is considered the flowability index. The flowability index (radius of hole size in cm) along with the bulk density of the material tested are then used to determine the viscosity (internal friction coefficient) of the powder. Lower powder viscosity indicates better flowability.
Samples of the finished lactitol granulations produced during execution of the commercial optimization protocol were also evaluated for flow using the HANSON Intrinsic Flowability Test. During the test, the smallest hole (in millimeters) that the product will flow through is determined in the FLODEX apparatus. Using this information and the bulk density of each powder (as determined in a 250 mL graduated cylinder) the coefficient of friction or viscosity (K) was calculated. The viscosity K (in poises) is equal to 490 (½ the acceleration of gravity) times the radius of the hole in centimeters times the bulk density of the sample. The result K is then multiplied by 100 to express the viscosity in centipoises.

[5] = Moisture content by Karl Fischer (KF)
Experimental: As noted, lactitol exists in the monohydrate, dihydrate, trihydrate, and hexahydrate forms. Lactitol monohydrate is the preferred form of lactitol for use. Lactitol monohydrate is defined by the EU-NP and USP-NF as having moisture content of between 4.5 wt % and 5.5 wt %. As used herein, the term “moisture content” refers to the total moisture content of a composition, including both free and bound water. Moisture contents reported here are determined by the Karl-Fischer (KF) method, but may also be determined by other suitable methods known in the art.
During the weighing of the ingredients for the binder solution and during the set up for granulation, an approximately 100 g sample representing each raw material is taken and placed into an appropriately labeled container. An approximately 0.3 gram sample is dispersed in methanol and test using a Karl Fischer moisture analyzer with HYDRANAL Composite 5 titrant using a 60 sec extraction time. Percent moisture was reported.
For each Qualification lot, at the beginning and middle of each shift samples were pulled using a sample thief from three locations within the tub after granulation but before drying. These samples were tested for moisture as described above.
Moisture content was also tested using the same procedure after the second drying step.

SMILES | PS d10 [1] [μ] | PS d50 [1] [μ] | PS d90 [1] [μ] | Tapped Density (Tapped density) [g/mL] | Bulk Density (Bulk density) [g/mL] | Particle Size Distribution (% Retained) 12 [2] [%] | Particle Size Distribution (% Retained) 20 [2] [%] | Particle Size Distribution (% Retained) 40 [2] [%] | Particle Size Distribution (% Retained) 60 [2] [%] | Particle Size Distribution (% Retained) 80 [2] [%] | Particle Size Distribution (% Retained) 100 [2] [%] | Particle Size Distribution (% Retained) 200 [2] [%] | Particle Size Distribution (% Retained) Pan [2] [%] | Moisture NMT 3.0% [3] [%] | also measured
O.OC[C@@H](O)[C@@H](O[C@@H]1O[C@H](CO)[C@H](O)[C@H](O)[C@H]1O)[C@H](O)[C@@H](O)CO [Raw Lactitol B] | 94.2 | 365.3 | 720.3 | 0.754 | 0.677 | 0.0 | 0.3 | 64.4 | 29.9 | 3.6 | 0.7 | 0.8 | 0.3 | 1.28 | –
OC[C@@H](O)[C@@H](O[C@H]1O[C@H](CO)[C@H](O)[C@H](O)[C@H]1O)[C@H](O)[C@@H](O)CO [Raw Lactitol, 4-O-α-D-Galactopyranosyl-D-glucitol] | 112.4 | 426.1 | 922.8 | 0.925 | 0.798 | 0.0 | 10.0 | 57.0 | 26.3 | 4.0 | 0.9 | 1.3 | 0.5 | 0.61 | Particle Size Span [1]: 1.9; d50 (mean particle size by volume distribution) [1]: 426 microns; d50 ([1]; round bar impeller, 1500 rpm): 235 microns; d50 ([1]; round bar impeller, 1800 rpm): 196 microns; d50 ([1]; square bar impeller, 4200 rpm): approximately 115 microns; Tapped Density (Tapped density; listed as Raw Lactitol A): 0.925 g/mL; Tapped Density (Tapped density; listed as lactitol monohydrate): 0.93 g/mL; Flow Viscosity [4]: ~10 CPS (×1000); viscosity (flowability) [4]: approximately 9,776 cps; KF moisture [5]: 4.93%
